≈ marks a conversion by molar mass, not a printed value. Like-named read-outs stand apart in the source and are kept apart here.
How the values were obtained:
Candida tropicalis = experiment: Broth microdilution antifungal MIC (NCCLS); format: cell-based; settings: RPMI-1640, 35° C., 24-48 hours
Procedure: (§1) The antifungal activity of Hygroscopene A is determined by a broth microdilution method as recommended by the National Committee for Clinical Laboratory Standard (NCCLS) (1, 2). Sterile, disposable, multiwell plates (96 U-shaped wells) containing serial dilutions of Hygroscopene A and a control drug (Amphotericin B) are prepared in a 100 μl volume with RPMI-1640 broth supplemented with 0.2% sodium bicarbonate and […] [3-(N-morpholino) propanesulfonic acid] buffer. RPMI-1640 is a completely synthetic medium that supports the growth of most fungi. Antimicrobial agent concentrations ranged from 0.06-64 μg/ml. Five colonies from 24-hour old yeast culture or 48-hour old filamentous fungi culture were suspended in 0.85% saline. The suspensions are diluted in RPMI-1640 broth and inoculated in to plates (100 μl/well) containing antimicrobial agents. The final inocula of yeast or fungi are 0.5-2.5×10^3 CFU/ml and 0.4×10^4-5×10^4 CFU/ml respectively. Plates are incubated at 35° C. for 24-72 hours in ambient air. Hygroscopene A is tested against a panel of pathogenic yeast and filamentous fungi, which consisted of Candida sp. and Aspergillus sp. The yeast and fungal strains tested are clinical isolates or were purchased from American Type Culture Collection (ATCC) (Rockville, Md.). […] The MIC values for yeast are determined after 24-48 hours of incubation. For filamentous fungi, the MIC is determined after 72 hours of incubation.

Candida albicans = experiment: Broth microdilution antifungal MIC (NCCLS); format: cell-based; settings: RPMI-1640, 35° C., 24-48 hours
Procedure: as §1

Candida parapsilosis = experiment: Broth microdilution antifungal MIC (NCCLS); format: cell-based; settings: RPMI-1640, 35° C., 24-48 hours
Procedure: as §1

Candida rugosa = experiment: Broth microdilution antifungal MIC (NCCLS); format: cell-based; settings: Candida rugosa 94-10, RPMI-1640, 35° C., 24-48 hours
Procedure: as §1

Candida krussii = experiment: Broth microdilution antifungal MIC (NCCLS); format: cell-based; settings: Candida krussii 94-2, RPMI-1640, 35° C., 24-48 hours
Procedure: as §1

Aspergillus niger = experiment: Broth microdilution antifungal MIC (NCCLS); format: cell-based; settings: Aspergillus niger ATCC 26933, RPMI-1640, 35° C., 72 hours
Procedure: as §1

Candida pseudotropicalis = experiment: Broth microdilution antifungal MIC (NCCLS); format: cell-based; settings: Candida pseudotropicalis ATCC 28838, RPMI-1640, 35° C., 24-48 hours
Procedure: as §1

Candida lustitaniae = experiment: Broth microdilution antifungal MIC (NCCLS); format: cell-based; settings: Candida lustitaniae 94-3, RPMI-1640, 35° C., 24-48 hours
Procedure: as §1

[1] = Solubility (physico-chemical properties); format: physicochemical; settings: solvents MeOH, EtOH, DMSO
Aspergillus fumigatus = experiment: Broth microdilution antifungal MIC (NCCLS); format: cell-based; settings: Aspergillus fumigatus S-430; RPMI-1640, 35° C., 72 hours
Procedure: as §1

C[C@@H]1[C@H](O)[C@@H](C)/C=C/C=C/C=C/C=C/C=C/C=C/C=C/[C@H](O[C@@H]2O[C@H](C)[C@@H](O)[C@H](N)[C@@H]2O)C[C@@H]2O[C@](O)(C[C@@H](O)C[C@@H](O)[C@H](O)CC[C@@H](O)C[C@@H](O)CC(=O)O[C@H]1C)C[C@H](O)[C@H]2C(=O)O [Amphotericin B, reference compound]
MIC (Candida tropicalis; Candida tropicalis 94-13): 0.25 µg/mL (≈ 0.271 µM) | MIC (Candida tropicalis; Candida tropicalis 94-14): 0.25 µg/mL (≈ 0.271 µM) | MIC (Candida albicans; Candida albicans 1063): 0.125 µg/mL (≈ 0.135 µM) | MIC (Candida albicans; Candida albicans 1117): 0.125 µg/mL (≈ 0.135 µM) | MIC (Candida albicans; Candida albicans ATCC 90028): 0.25 µg/mL (≈ 0.271 µM) | MIC (Candida parapsilosis; Candida parapsilosis 94-8): 0.25 µg/mL (≈ 0.271 µM) | MIC (Candida parapsilosis; Candida parapsilosis 94-9): 0.25 µg/mL (≈ 0.271 µM) | MIC (Candida parapsilosis; Candida parapsilosis ATCC 90018): 0.25 µg/mL (≈ 0.271 µM) | MIC (Candida rugosa): 0.50 µg/mL (≈ 0.541 µM) | MIC (Candida krussii): 0.50 µg/mL (≈ 0.541 µM) | MIC (Aspergillus niger): 0.50 µg/mL (≈ 0.541 µM) | MIC (Candida pseudotropicalis): 0.25 µg/mL (≈ 0.271 µM) | MIC (Candida lustitaniae): 0.125 µg/mL (≈ 0.135 µM)

C\C(=C/C=C/C=C/CC/C=C/C(C)C(O)C(C)C(O)/C=C/C=C/C=C/C=C/C=C/C=C/CC(OS(=O)(=O)O)C(C)C(=O)CC(O)CC(O)/C=C/CC(O)CC(O)/C=C/CC(O)CC(O)CC(O)/C=C/CC(O)CC(O)CCCNC(=N)N)C(=O)O (stereo not drawn) [Hygroscopene A]
Solubility [1]: Soluble in MeOH, EtOH, DMSO | MIC (Aspergillus fumigatus): 2 µg/mL (≈ 1.64 µM) | MIC (Candida tropicalis; Candida tropicalis 94-13, read-out: MIC): 1 µg/mL (≈ 0.821 µM) | MIC (Candida tropicalis; Candida tropicalis 94-14): 1.0 µg/mL (≈ 0.821 µM) | MIC (Candida albicans; Candida albicans, ATCC90028, Candida albicans ATCC 90028, read-out: MIC): 2 µg/mL (≈ 1.64 µM) | MIC (Candida albicans; Candida albicans, Candida albicans 1063, read-out: MIC): 2 µg/mL (≈ 1.64 µM) | MIC (Candida albicans; Candida albicans, Candida albicans 1117, read-out: MIC): 1 µg/mL (≈ 0.821 µM) | MIC (Candida parapsilosis; Candida parapsilosis 94-9): 2.0 µg/mL (≈ 1.64 µM) | MIC (Candida parapsilosis; Lodderomyces parapsilosis, ATCC90018, Candida parapsilosis ATCC 90018, read-out: MIC): 2 µg/mL (≈ 1.64 µM) | MIC (Candida parapsilosis; Lodderomyces parapsilosis, Candida parapsilosis 94-8, read-out: MIC): 2 µg/mL (≈ 1.64 µM) | MIC (Candida rugosa; Diutina rugosa, read-out: MIC): 1 µg/mL (≈ 0.821 µM) | MIC (Candida krussii; read-out: MIC): 1 µg/mL (≈ 0.821 µM) | MIC (Aspergillus niger; ATCC26933, read-out: MIC): 8 µg/mL (≈ 6.57 µM) | MIC (Candida pseudotropicalis; Kluyveromyces marxianus, ATCC28838, read-out: MIC): 2 µg/mL (≈ 1.64 µM) | MIC (Candida lustitaniae; read-out: MIC): 1 µg/mL (≈ 0.821 µM)

C\C(=C/C=C/C=C/CC/C=C/C(C)C(O)C(C)C(O)/C=C/C=C/C=C/C=C/C=C/C=C/CC(OS(=O)(=O)O)C(C)C(=O)CC(O)CC(O)/C=C/CC(O)CC(O)/C=C/CC(O)CC(O)CC(O)/C=C/CC(O)CC(O)CCCN)C(=O)O (stereo not drawn) [Hygroscopene B]
Solubility [1]: Soluble in MeOH, EtOH, DMSO

C\C(=C/C=C/C=C/CC/C=C/C(C)C(O)C(C)C(O)/C=C/C=C/C=C/C=C/C=C/C=C/CC(O)C(C)C(=O)CC(O)CC(O)/C=C/CC(O)CC(O)/C=C/CC(O)CC(O)CC(O)/C=C/CC(O)CC(O)CCCN)C(=O)O (stereo not drawn) [Hygroscopene C]
Solubility [1]: Soluble in MeOH, EtOH, DMSO
